Measurements from patent publication US20220056123A1, “USE OF IL-1BETA BINDING ANTIBODIES” (NOVARTIS AG, priority 2018, published 2022).

What was measured:
[1] = CANTOS immunogenicity, bridging ECLIA for anti-drug antibodies; format: in vivo, human
Protocol: During the CANTOS trial, blood samples for immunogenicity assessments were collected at baseline Month 12, 24 and end of study visit. Immunogenicity was analyzed using a bridging immunogenicity electrochemiluminescence immunoassay (ECLIA). Samples were pre-treated with acetic acid and neutralized in buffer containing labeled drug (biotinylated ACZ885 and sulfo-TAG (Ruthenium) labeled ACZ885). Anti-canakinumab antibodies (anti-drug antibodies) were captured by a combination of biotinylated and sulfo-TAG labeled forms of ACZ885. Complex formation was subsequently detected by electrochemiluminescence by capturing complexes on Mesoscale Discovery Streptavidin (MSD) plates.

[2] = system: CD34+ blood vessels in trabecular bone; test: Bone microvasculature after suppression of IL-1β signalling; format: in vivo, BALB/c nude mice and C57BL/6 mice
Protocol: FIG. 7. IL-1β in the bone microenvironment stimulates expansion of the bone metastatic niche. Effects of adding 40 pg/ml or 5 ng/ml recombinant IL-1β to MDA-MB-231 or T47D breast cancer cells is shown in (a) and effects on adding 20 pg/ml, 40 pg/ml or 5 ng/ml IL-1B on proliferation of HS5, bone marrow, or OB1, osteoblasts, are shown in b) and c) respectively. (d) IL-1 driven alterations to the bone vasculature was measured following CD34 staining in the trabecular region of the tibiae from 10-12-week old female IL-1R1 knockout mice. […] Data are shown as mean+/−SEM, *=P<0.01, **=P<0.001, ***=P<0.0001.
FIG. 8. Suppression of IL-1β signalling affects bone integrity and vasculature. […] Data shown are mean+/−SEM, *=P<0.01, **=P<0.001, ***=P<0.0001 compared with control.
To model human breast cancer metastasis to human bone implants two human bone discs were implanted subcutaneously into 10-week old female NOD SCID mice (n=10/group) under isofluorane anaesthetic. Mice received an injection of 0.003 mg vetergesic and Septrin was added to the drinking water for 1 week following bone implantation. Mice were left for 4 weeks before injecting 1×10^5 MDA-MB-231 Luc2-TdTomato, MCF7 Luc2 or T47D Luc2 cells in 20% Martigel/79% PBS/1% toluene blue into the two hind mammary fat pads. Primary tumor growth and development of metastases was monitored weekly using an IVIS […] system (Caliper Life Sciences) following sub-cutaneous injection of 30 mg/ml D-luciferin (Invitrogen). On termination of experiments mammary tumors, circulating tumor cells, serum and bone metastases were resected. RNA was processed for downstream analysis by real time PCR, and cell lysates were taken for protein analysis and whole tissue for histology as previously described (Nutter et al., 2014; Ottewell et al., 2014a). […] Tumor cells, serum, and bone were subsequently resected for downstream analysis. Bone metastases were investigated following injection of 5×10^5 MDA-MB-231 GFP (control), MDA-MB-231-IV, MDA-MB-231-IL-1B-positive or MDA-MB-231-IL-1R1-positive cells into the lateral tail vein of 6 to 8-week old female BALB/c nude mice (n=12/group). Tumor growth in bones and lungs was monitored weekly by GFP imaging in live animals. Mice were culled 28 days after tumor cell injection at which timepoint hind limbs, lungs and serum were resected and processed for microcomputed tomography imaging (pCT), histology and ELISA analysis of bone turnover markers and circulating cytokines as described (Holen et al., 2016).

[3] = system: patients with atherosclerosis who had had a myocardial infarction; conditions: compared with placebo, median follow-up 3.7 years, cited from earlier work
MDA-MB231 = test: TNBC MDA-MB231 xenograft in humanized BLT mice; format: in vivo, humanized mouse; conditions: single agent arm, compared to isotype control
Protocol: • I. Tumor models: The role of IL-1β in tumor immunity and efficacy of IL-1β blocking antibodies were tested in the following preclinical models: • Xenograft tumors in humanized mouse models: NSCLC (H358), TNBC (MDA-MB231) and CRC (SW480) • Syngeneic tumor models: TNBC (4T1) and lung (LL-2) cancer • II. […] Combination treatments include chemotherapeutic agent, docetaxel (6.25 mg/Kg QW IV), PD-1 pathway inhibitors (anti-human PD-1, pembrolizumab 10 mg/Kg Q5D IP or anti-mouse PD-1, clone 1D2 10 mg/Kg QW IP) and anti-mouse VEGF blocking antibody (clone 4G3, 5 mg/Kg Q5D) were used in combination with anti-IL-1β antibody. Appropriate isotype controls were used. In all experiments, dosing was initiated after tumor implantation. • III. Experimental readouts: activity of therapeutic agents in preclinical models were assessed by the following: • Tumor volume was determined by measurement with calipers throughout the course of the study. Tumor weights in milligrams were determined at end of study • Immunohistochemistry analysis was performed on FFPE NSCLC (H358) xenograft tissue • Changes in immune populations in peripheral blood in CRC (SW480) xenograft humanized model and tumors in syngeneic models (4T1 and LL-2) were assessed by flow cytometry using markers for T cell, myeloid populations

Question: Which “patients with treatment-emergent anti-canakinumab antibodies” value ([1]; canakinumab 150 mg group) does the source give for “canakinumab: high-affinity, fully human monoclonal antibody of the IgG1/k to interleukin-1β” here?
Answer: 0.4%

Question: What about the “patients with treatment-emergent anti-canakinumab antibodies” value ([1]; canakinumab 300 mg group) of the same substance?
Answer: 0.3%

Question: And the “association of anti-drug antibodies with AEs or hsCRP response” value ([1]; in vivo)?
Answer: not associated with immunogenicity related AEs or altered hsCRP response

Question: And the “average length of CD34+ blood vessels in trabecular bone” value ([2]; IL-1Ra 1 mg/kg daily (BALB/c nude), canakinumab single dose (C57BL/6), p<0.01)?
Answer: reduced the average length

Question: What about the “endothelin 1 concentration (ELISA)” value ([2]; compared with control, p<0.01) of the same substance?
Answer: reduced concentrations

Question: What about the “VEGF concentration (ELISA)” value ([2]; compared with control, p<0.01 IL-1R antagonist, p<0.001 canakinumab) of the same substance?
Answer: reduced concentrations

Question: What about the “reductions in concentrations of hsCRP” value ([3]; dose-dependent (50, 150, 300 mg sc every 3 months)) of the same substance?
Answer: 26-41%

Question: And the “reductions in concentrations of interleukin 6” value ([3]; dose-dependent)?
Answer: 25-43%

Question: And the “animals with slower tumor growth” value (MDA-MB231)?
Answer: 100 % of animals
